Reference: patent US20230011571A1, “SMALL MOLECULE FURIN INHIBITORS FOR TREATING INFECTIOUS DISEASES” (BP Asset V, Inc., priority 2019, published 2023)

Assays:
Type in all cases: cell-based
[1] = system: Chikungunya virus (CHIKV); experiment: microbe, parasite or virus in culture; conditions: Chikungunya virus, Vero, 48 h, read-out: Percent viral inhibition CHKV
Marburg virus (MARV) = experiment: organism not typed; conditions: Vero, 72 h, read-out: Percent viral inhibition MARV
dengue virus (DENV) = experiment: microbe, parasite or virus in culture; conditions: Dengue virus, Vero, 120 h, read-out: Percent viral inhibition DENY

CC(=O)NCC1CCN(Cc2cc(Oc3ccc(N4CCN(CC5(CO)CC5)CC4)nc3)nc(-c3cc(Cl)cc(Cl)c3)c2)CC1 [Example 34, N-((1-((2-(3,5-dichlorophenyl)-6-((6-(4-((1-(hydroxymethyl)cyclopropyl)methyl)piperazin-1-yl)pyridin-3-yl)oxy)pyridin-4-yl)methyl)piperidin-4-yl)methyl)acetamide]
inhibition at 1 µM [1]: 1.42% | inhibition at 1 µM (Marburg virus (MARV)): 30.3% | inhibition at 1 µM (dengue virus (DENV)): 46.8%

CCNC(=O)CC1CCN(Cc2cc(Oc3ccc(N4CCN(CCCS(C)(=O)=O)CC4)nc3)nc(-c3cc(Cl)cc(Cl)c3)c2)CC1 [Example 36, 2-(1-((2-(3,5-dichlorophenyl)-6-((6-(4-(3-(methylsulfonyl)propyl)piperazin-1-yl)pyridin-3-yl)oxy)pyridin-4-yl)methyl)piperidin-4-yl)-N-ethylacetamide]
inhibition at 1 µM [1]: 5.78% | inhibition at 1 µM (Marburg virus (MARV)): 52.5% | inhibition at 1 µM (dengue virus (DENV)): 38%

CNCc1cc(Oc2cnc(N3CCN(CCCS(C)(=O)=O)CC3)nc2)nc(-c2cc(Cl)cc(Cl)c2)c1 [Example 37, 1-(2-(3,5-dichlorophenyl)-6-((2-(4-(3-(methylsulfonyl)propyl)piperazin-1-yl)pyrimidin-5-yl)oxy)pyridin-4-yl)-N-methylmethanamine]
inhibition at 1 µM [1]: 32.9% | inhibition at 1 µM (Marburg virus (MARV)): 56.6% | inhibition at 1 µM (dengue virus (DENV)): 100%

NS(=O)(=O)CC1CCN(Cc2cc(Oc3ccc(N4CCN(CCC(=O)O)CC4)nc3)nc(-c3cc(Cl)cc(Cl)c3)c2)CC1 [Example 38, 3-(4-(5-((6-(3,5-dichlorophenyl)-4-((4-(sulfamoylmethyl)piperidin-1-yl)methyl)pyridin-2-yl)oxy)pyridin-2-yl)piperazin-1-yl)propanoic acid]
inhibition at 1 µM [1]: 39.1% | inhibition at 1 µM (Marburg virus (MARV)): 50% | inhibition at 1 µM (dengue virus (DENV)): 14.2%

CS(=O)(=O)CC1CCN(Cc2cc(Oc3ccc(N4CCN(CCC(=O)O)CC4)nc3)nc(-c3cc(Cl)cc(Cl)c3)c2)CC1 [Example 39, 3-(4-(5-((6-(3,5-dichlorophenyl)-4-((4-((methylsulfonyl)methyl)piperidin-1-yl)methyl)pyridin-2-yl)oxy)pyridin-2-yl)piperazin-1-yl)propanoic acid]
inhibition at 1 µM [1]: 23.7% | inhibition at 1 µM (Marburg virus (MARV)): 60.1% | inhibition at 1 µM (dengue virus (DENV)): 54.7%

CNC(=O)NCC1CCN(Cc2cc(Oc3ccc(N4CCN(CCO)CC4)nc3)nc(-c3cc(Cl)cc(Cl)c3)c2)CC1 [Example 40, 1-((1-((2-(3,5-dichlorophenyl)-6-((6-(4-(2-hydroxyethyl)piperazin-1-yl)pyridin-3-yl)oxy)pyridin-4-yl)methyl)piperidin-4-yl)methyl)-3-methylurea]
inhibition at 1 µM [1]: 3.24% | inhibition at 1 µM (Marburg virus (MARV)): 0% | inhibition at 1 µM (dengue virus (DENV)): 0%

CNC(=O)NCC1CCN(Cc2cc(Oc3ccc(N4CCN(CCC(=O)O)CC4)nc3)nc(-c3cc(Cl)cc(Cl)c3)c2)CC1 [Example 41, 3-(4-(5-((6-(3,5-dichlorophenyl)-4-((4-((3-methylureido)methyl)piperidin-1-yl)methyl)pyridin-2-yl)oxy)pyridin-2-yl)piperazin-1-yl)propanoic acid]
inhibition at 1 µM [1]: 30.1% | inhibition at 1 µM (Marburg virus (MARV)): 43% | inhibition at 1 µM (dengue virus (DENV)): 68.7%

CC(=O)NCC1CCN(Cc2cc(Oc3ccc(N)cc3)cc(-c3cc(Cl)cc(Cl)c3)c2)CC1 [Example 42, N-((1-((5-(4-aminophenoxy)-3′,5′-dichloro-[1,1′-biphenyl]-3-yl)methyl)piperidin-4-yl)methyl)acetamide]
inhibition at 1 µM [1]: 7.42% | inhibition at 1 µM (Marburg virus (MARV)): 0% | inhibition at 1 µM (dengue virus (DENV)): 24%

CS(=O)(=O)NCC1CCN(Cc2cc(Oc3ccc(N4CCN(CCC(=O)O)CC4)nc3)nc(-c3cc(Cl)cc(Cl)c3)c2)CC1 [Example 44, 3-(4-(5-((6-(3,5-dichlorophenyl)-4-((4-(methylsulfonamidomethyl)piperidin-1-yl)methyl)pyridin-2-yl)oxy)pyridin-2-yl)piperazin-1-yl)propanoic acid]
inhibition at 1 µM [1]: 35.5% | inhibition at 1 µM (Marburg virus (MARV)): 49% | inhibition at 1 µM (dengue virus (DENV)): 69%
